In US5814630A, “Quinazoline compounds” (Zeneca Limited, priority 1996, dated 1998):
Each block holds one compound with its values, some of them ahead of it.

Columns and labels:
[1] = system: human naso-pharyngeal cancer cell line KB; assay: in vitro inhibition of EGF-stimulated growth of human naso-pharyngeal cancer cell line KB (Test (b)); assay type: cell-based; conditions: 72 h, EGF 10 ng/ml, 3 days, MTT, read-out: IC50 in Test (b), inhibition of EGF-stimulated growth of KB cells
Procedure: (b) An in vitro assay which determines the ability of a test compound to inhibit the EGF-stimulated growth of the human naso-pharyngeal cancer cell line KB.
KB cells were seeded into wells at a density of 1×10^4 -1.5×10^4 cells per well and grown for 24 hours in DMEM supplemented with 5% FCS (charcoal-stripped). Cell growth was determined after incubation for 3 days by the extent of metabolism of MTT tetrazolium dye to furnish a bluish colour. Cell growth was then determined in the presence of EGF (10 ng/ml) or in the presence of EGF (10 ng/ml) and a test compound at a range of concentrations. An IC50 value could then be calculated.

[2] = molecular target: T1, EGF receptor tyrosine kinase (Homo sapiens, UniProt P00533); assay: in vitro inhibition of the enzyme EGF receptor tyrosine kinase (Test (a)); assay type: biochemical; conditions: receptor tyrosine kinase from A-431 cells
T1 construct: Receptor tyrosine kinase was obtained in partially purified form from A-431 cells; endogenous in cells; host or cells: A-431 cells (human vulval carcinoma), Triton X-100 solubilised membrane fraction
T1 sequence (P00533 25-1210): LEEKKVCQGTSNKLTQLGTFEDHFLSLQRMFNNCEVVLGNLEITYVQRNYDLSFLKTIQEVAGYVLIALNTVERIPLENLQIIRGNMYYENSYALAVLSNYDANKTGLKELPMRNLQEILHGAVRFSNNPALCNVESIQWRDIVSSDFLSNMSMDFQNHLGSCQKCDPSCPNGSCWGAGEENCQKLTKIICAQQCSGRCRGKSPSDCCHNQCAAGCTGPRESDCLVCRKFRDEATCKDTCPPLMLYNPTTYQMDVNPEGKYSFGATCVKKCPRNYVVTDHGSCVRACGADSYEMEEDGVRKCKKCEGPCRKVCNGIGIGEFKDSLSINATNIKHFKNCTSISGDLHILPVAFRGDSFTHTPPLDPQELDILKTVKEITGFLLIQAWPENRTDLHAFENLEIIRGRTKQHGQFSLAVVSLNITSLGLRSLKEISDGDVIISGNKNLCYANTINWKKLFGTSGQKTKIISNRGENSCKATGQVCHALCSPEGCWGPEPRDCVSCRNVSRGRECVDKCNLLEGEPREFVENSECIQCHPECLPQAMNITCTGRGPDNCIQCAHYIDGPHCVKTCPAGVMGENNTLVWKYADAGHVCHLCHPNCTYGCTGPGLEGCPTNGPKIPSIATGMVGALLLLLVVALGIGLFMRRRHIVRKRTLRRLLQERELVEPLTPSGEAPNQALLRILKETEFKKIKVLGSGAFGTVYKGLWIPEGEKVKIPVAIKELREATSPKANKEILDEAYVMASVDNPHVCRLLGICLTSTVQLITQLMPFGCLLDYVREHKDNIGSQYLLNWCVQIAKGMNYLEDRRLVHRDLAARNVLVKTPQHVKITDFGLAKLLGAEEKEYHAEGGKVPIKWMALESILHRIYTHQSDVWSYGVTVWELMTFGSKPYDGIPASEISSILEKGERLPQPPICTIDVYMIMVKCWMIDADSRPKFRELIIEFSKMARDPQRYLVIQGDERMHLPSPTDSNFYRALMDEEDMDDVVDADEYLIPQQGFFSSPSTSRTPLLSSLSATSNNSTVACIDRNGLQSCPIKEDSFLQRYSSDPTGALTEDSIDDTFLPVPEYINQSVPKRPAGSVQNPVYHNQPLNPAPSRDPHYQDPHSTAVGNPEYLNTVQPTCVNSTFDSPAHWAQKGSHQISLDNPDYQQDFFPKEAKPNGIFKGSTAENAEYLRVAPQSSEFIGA
T1 sequence (P01133 971-1023 partner limits assumed): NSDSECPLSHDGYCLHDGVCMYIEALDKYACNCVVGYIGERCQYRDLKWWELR
Procedure: (a) An in vitro assay which determines the ability of a test compound to inhibit the enzyme EGF receptor tyrosine kinase. Receptor tyrosine kinase was obtained in partially purified form from A-431 cells (derived from human vulval carcinoma) by the procedures described below which are related to those described by Carpenter et al., J. Biol. Chem., 1979, 254, 4884, Cohen et al., J. Biol. Chem., 1982, 257, 1523 and by Braun et al., J. Biol. Chem., 1984, 259, 2051.
A-431 cells were grown to confluence using Dulbecco's modified Eagle's medium DMEM) containing 5% fetal calf serum (FCS). The obtained cells were homogenised in a hypotonic borate/EDTA buffer at pH 10.1. The homogenate was centrifuged at 400 g for 10 minutes at 0°-4° C. The supernatant was centrifuged at 25,000 g for 30 minutes at 0°-4° C. […]
The test compound/EGF mixture solution (5 μl) was added to the test enzyme solution (10 μl) and the mixture was incubated at 0°-4° C. for 30 minutes. […] Radioactivity present in the filter paper was measured using a liquid scintillation counter (Sequence A). […]
Receptor tyrosine kinase inhibition was calculated as follows: [formula]
The extent of inhibition was then determined at a range of concentrations of test compound to give an IC50 value.

[3] = system: another carcinoma which does not express EGF receptor tyrosine kinase; conditions: cited from earlier work
[4] = system: human mammary carcinoma which expresses EGF receptor tyrosine kinase; conditions: athymic nude mice; cited from earlier work
[5] = system: EGF receptor tyrosine kinase; conditions: Fry et al., Science, 1994, 265, 1093; cited from earlier work

IC50 [1]: 120 nM
IC50 [2]: 42 nM
SMILES: Fc1ccc(Nc2ncnc3cc(-c4csc(CN5CCOCC5)c4)ccc23)cc1Cl [Example 5, 4-(3-chloro-4-fluoroanilino)-7-(5-morpholinomethylthien-3-yl)quinazoline]

SMILES: O=CN/C=C/c1cc(O)ccc1O [erbstatin]
effect on the growth of another carcinoma [3]: without effect
attenuation of growth of a transplanted human mammary carcinoma [4]: specifically attenuates the growth

SMILES: COc1cc2ncnc(Nc3cccc(Br)c3)c2cc1OC [4-(3-bromoanilino)-6,7-dimethoxyquinazoline]
inhibition of EGF receptor tyrosine kinase (in words) [5]: highly potent inhibitor
